Here are results for two molecules from patent US20210338626A1, “METHODS FOR TREATING OR PREVENTING A VIRAL INFECTION OR INHIBITING VIRAL REPLICATION” (Dalcor Pharma UK Ltd., Leatherhead, Zug Branch, priority 2020, published 2021).

One data set relates to SARS-CoV-2. The data set is described as follows: SARS-CoV-2 plaque formation in Vero E6 cells. The format is cell-based. The conditions noted are these: Severe acute respiratory syndrome coronavirus 2, Vero C1008, pre-incubated one hour before addition of virus, read-out: IC50, SARS-CoV-2 plaque formation / viral replication.
The conditions of data set [1]: in vivo; cited from earlier work.
Details of data set [2]: species or system rodents. The conditions noted are these: in vivo, po. From the text:
(§1) In rats, the percentages of an administered oral dose excreted into the feces as dalcetrapib-ester and dalcetrapib thiol plus dalcetrapib thiol dimer are 41.1% and 17.8%, respectively. The corresponding values following oral administration in monkeys are 11.6% and 22.2%.

For data set [3], the target named is T1, cholesteryl ester transfer protein (Homo sapiens, UniProt P11597).
T1 sequence (P11597 18-493): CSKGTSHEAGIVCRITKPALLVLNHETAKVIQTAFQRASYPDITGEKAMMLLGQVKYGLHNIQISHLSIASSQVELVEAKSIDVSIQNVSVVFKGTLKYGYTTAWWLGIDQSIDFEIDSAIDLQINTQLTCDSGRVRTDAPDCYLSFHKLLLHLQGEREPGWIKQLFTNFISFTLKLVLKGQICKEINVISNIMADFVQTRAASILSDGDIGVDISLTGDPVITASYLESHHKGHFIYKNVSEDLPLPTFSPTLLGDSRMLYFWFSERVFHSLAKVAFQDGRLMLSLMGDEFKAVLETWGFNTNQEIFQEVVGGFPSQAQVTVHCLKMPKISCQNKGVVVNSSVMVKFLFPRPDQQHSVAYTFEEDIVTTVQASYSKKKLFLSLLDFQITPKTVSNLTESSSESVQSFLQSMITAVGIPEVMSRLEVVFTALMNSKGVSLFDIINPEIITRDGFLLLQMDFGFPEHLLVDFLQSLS
The conditions noted are these: cited from earlier work.

On the set-up of data set [4]: species or system monkeys. The following applies: monkey, in vivo.
Excerpt: as §1

On the set-up of data set [5]: species or system rats. The conditions noted are these: rat, in vivo.
Excerpt: as §1

Where two headings read alike, the source gives them in different places.

As to `CCC(CC)CC1(C(=O)Nc2ccccc2S)CCCCC1` [Dalcetrapib thiol], the IC50 in the data set on SARS-CoV-2 was roughly 17.8 µM.

As for `CCC(CC)CC1(C(=O)Nc2ccccc2SC(=O)C(C)C)CCCCC1` [Dalcetrapib], the “safety issues from formation of covalent protein adducts” value in data set [1] is given as “has not been observed”. Also, the tissue distribution result in data set [2] is “distributes in all tissues including the lungs and gastrointestinal tract”. In addition, the IC50 in data set [3] (pre-incubation 1 hour) was 1.18 µM; in data set [3] (pre-incubation 24 hours) it was 0.045 µM; with SARS-CoV-2, 17.8 µM. Moreover, the results for the “percentage of administered oral dose excreted into the feces as dalcetrapib thiol plus dalcetrapib thiol dimer” value in data set [4] and in data set [5] were 22.2% and 17.8%, respectively. The “percentage of administered oral dose excreted into the feces as dalcetrapib-ester” value in data set [4] is recorded as 11.6%; in data set [5] it was 41.1%.
